Some test systems named below: DU-145 prostate; HCT-116 colon; HL-60(TB) leukemia; IGROV1 ovarian; MDA-MB-435; NCI-H226 lung; NCI-H23 lung; OVCAR-3 ovarian; SK-OV-3 ovarian; TK-10 renal; UACC-62 melanoma; HOP-62 NSCLC; OVCAR-4 ovarian.
Experiment in all cases: NCI anticancer screen, dose series, 48 h

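48-hour exposure; five concentrations; linearly interpolated endpoints. TGI marks complete inhibition of growth.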

On to `c1ccc2nc3c(nc2c1)sc1nc2ccccc2n13`, for which the TGI in the test on DU-145 prostate, with HCT-116 colon, in the test with HL-60(TB) leukemia, in the test with IGROV1 ovarian, with MDA-MB-435 and in the test with NCI-H226 lung was more than 100 µM throughout. Moreover, the TGI in the test with NCI-H23 lung, in the test with OVCAR-3 ovarian, with SK-OV-3 ovarian, with TK-10 renal and with UACC-62 melanoma was more than 100 µM each time.

On to `Cc1ccc(/C(O)=C/c2nc3ccccc3nc2NC23CC4CC(CC(C4)C2)C3)cc1`, for which the TGI in the test with DU-145 prostate, in the test with HCT-116 colon, in the test on HL-60(TB) leukemia, in the test on HOP-62 NSCLC, in the test with IGROV1 ovarian and in the test with MDA-MB-435 was more than 10 µM in each case. The TGI in the test on NCI-H23 lung, in the test on OVCAR-3 ovarian, in the test on OVCAR-4 ovarian, in the test on SK-OV-3 ovarian, with TK-10 renal and in the test on UACC-62 melanoma was more than 10 µM throughout.

As for `O=c1[nH]nc(Cc2ccccc2)n1N=C1CCCCC1`, the TGI with DU-145 prostate, in the test on HCT-116 colon, with HL-60(TB) leukemia, with HOP-62 NSCLC, with IGROV1 ovarian and in the test on MDA-MB-435 was more than 100 µM in each case. In addition, the TGI in the test with NCI-H226 lung, in the test on NCI-H23 lung, in the test on OVCAR-3 ovarian, in the test on OVCAR-4 ovarian, in the test on TK-10 renal and in the test on UACC-62 melanoma was more than 100 µM in each case.

With `Nc1nc([O-])c([I+]c2ccccc2)c(=O)[nH]1`, the TGI in the test on DU-145 prostate, in the test with HCT-116 colon, in the test on HL-60(TB) leukemia, with HOP-62 NSCLC, in the test with IGROV1 ovarian and in the test on MDA-MB-435 was more than 100 µM each time. Moreover, the TGI in the test with NCI-H226 lung, in the test with NCI-H23 lung, in the test on OVCAR-3 ovarian, with OVCAR-4 ovarian and in the test on TK-10 renal was more than 100 µM throughout.

For the compound `O=C1CCCSCCCC(=O)CCCSCCC1`, the TGI in the test on DU-145 prostate, in the test with HCT-116 colon, in the test with HL-60(TB) leukemia, in the test with HOP-62 NSCLC, in the test on IGROV1 ovarian and in the test with MDA-MB-435 was more than 100 µM throughout. Also, the TGI in the test with NCI-H23 lung, with OVCAR-3 ovarian, with OVCAR-4 ovarian, with SK-OV-3 ovarian, with TK-10 renal and with UACC-62 melanoma was more than 100 µM in each case.

On to `CN(C(=O)C12C3C4C1C1C2C3C41C(=O)O)C(C)(C)C` (stereo not given), for which the TGI in the test with DU-145 prostate, in the test with HCT-116 colon, with HL-60(TB) leukemia, in the test with HOP-62 NSCLC, in the test on IGROV1 ovarian and in the test with MDA-MB-435 was more than 100 µM each time. The TGI with NCI-H23 lung, with OVCAR-3 ovarian, with OVCAR-4 ovarian, in the test with TK-10 renal and with UACC-62 melanoma was more than 100 µM each time.

For `COc1ccc(-c2c(C#N)c(N)n(C3OCC(O)C(O)C3O)c(=S)c2C#N)cc1` (stereo not given), the TGI with DU-145 prostate, in the test with HL-60(TB) leukemia, in the test on HOP-62 NSCLC, with IGROV1 ovarian, with MDA-MB-435 and with NCI-H226 lung was more than 100 µM each time. Besides, the TGI with NCI-H23 lung, with OVCAR-3 ovarian, in the test with SK-OV-3 ovarian, with TK-10 renal and with UACC-62 melanoma was more than 100 µM throughout.

In the case of `CCOC(=O)NC(OCCN(C)C)(C(F)(F)F)C(F)(F)F`, the TGI with DU-145 prostate, in the test on HCT-116 colon, with HL-60(TB) leukemia, in the test on HOP-62 NSCLC, with IGROV1 ovarian and in the test on MDA-MB-435 was more than 100 µM in each case. Moreover, the TGI in the test on NCI-H226 lung, with NCI-H23 lung, in the test on OVCAR-3 ovarian, in the test with SK-OV-3 ovarian, with TK-10 renal and in the test on UACC-62 melanoma was more than 100 µM each time.

Turning to `Cc1ccc(-n2nnc3c(NNc4ccccc4)n[nH]c(=O)c32)cc1`, the TGI in the test with DU-145 prostate, in the test with HCT-116 colon, with HL-60(TB) leukemia, in the test with HOP-62 NSCLC, in the test with MDA-MB-435 and in the test with NCI-H226 lung was more than 100 µM each time. The TGI was more than 100 µM in the test with NCI-H23 lung, more than 100 µM with OVCAR-4 ovarian and 75.4 µM with TK-10 renal.

Turning to `COc1nc(N)nc2c1n(C)c[n+]2C`, the TGI in the test on DU-145 prostate, in the test with HCT-116 colon, in the test on HL-60(TB) leukemia, in the test on HOP-62 NSCLC, in the test with IGROV1 ovarian and in the test with MDA-MB-435 was more than 100 µM each time. The TGI in the test with NCI-H226 lung, in the test on NCI-H23 lung, in the test with OVCAR-3 ovarian, in the test on SK-OV-3 ovarian, in the test on TK-10 renal and with UACC-62 melanoma was more than 100 µM throughout.

Regarding `COc1ccc(OC)c2sc(N3C(=O)/C(=C/c4ccc(N(C)C)cc4)N=C3c3ccccc3)nc12`, the TGI in the test on DU-145 prostate is more than 100 µM; in the test with HCT-116 colon, more than 100 µM; in the test on HL-60(TB) leukemia it was 64.3 µM; with HOP-62 NSCLC it was more than 100 µM; in the test on IGROV1 ovarian it was more than 100 µM; in the test with MDA-MB-435, more than 100 µM. In addition, the TGI in the test on OVCAR-3 ovarian, in the test with OVCAR-4 ovarian, with SK-OV-3 ovarian, in the test on TK-10 renal and with UACC-62 melanoma was more than 100 µM in each case.

For `N#Cc1c(Cl)cccc1Oc1ccc(S(=O)(=O)/N=C(\NO)Nc2ccc(Cl)cc2)cc1`, the TGI in the test with DU-145 prostate worked out at 32.9 µM; in the test with HCT-116 colon it was 27.2 µM; in the test with HL-60(TB) leukemia, 37.8 µM; in the test with HOP-62 NSCLC, 34.1 µM; in the test with IGROV1 ovarian it was 34.4 µM; with MDA-MB-435, 31.7 µM. The TGI with NCI-H226 lung amounted to 48 µM; in the test on NCI-H23 lung, 34.6 µM; in the test with OVCAR-3 ovarian, 29.2 µM; in the test with OVCAR-4 ovarian, 31.4 µM; with TK-10 renal, 30.7 µM; with UACC-62 melanoma, 29.3 µM.

Turning to `CCOC(=O)c1nc2cc(F)c(F)cc2nc1NCc1cc(OC)c(OC)c(OC)c1`, the TGI with DU-145 prostate, with HCT-116 colon, in the test on HL-60(TB) leukemia, in the test with HOP-62 NSCLC, in the test on IGROV1 ovarian and in the test on MDA-MB-435 was more than 100 µM in each case. The TGI with NCI-H23 lung, in the test on OVCAR-3 ovarian, with OVCAR-4 ovarian, with SK-OV-3 ovarian, in the test on TK-10 renal and in the test on UACC-62 melanoma was more than 100 µM throughout.

With `CC(C)C(=O)CC(Sc1ccc(N)cc1)c1ccccc1` (stereo not given), the TGI with DU-145 prostate was more than 100 µM; in the test on HCT-116 colon, 28.7 µM; in the test with HL-60(TB) leukemia it was 49.2 µM; with HOP-62 NSCLC it was 83.9 µM; in the test with IGROV1 ovarian, more than 100 µM; in the test with MDA-MB-435 it was 39.8 µM. Also, the TGI in the test on NCI-H226 lung was more than 100 µM; in the test with NCI-H23 lung, 58.2 µM; in the test with OVCAR-3 ovarian it was 67.8 µM; in the test with SK-OV-3 ovarian, 58.4 µM; in the test on TK-10 renal, more than 100 µM; with UACC-62 melanoma, 72.1 µM.

`CC(=O)N1c2ccccc2C2=NN=C(N(C)C)SC21` (stereo not given): the TGI turned out to be 7.45 µM with DU-145 prostate; 10.1 µM with HCT-116 colon; 5.07 µM with HL-60(TB) leukemia; 23.4 µM with HOP-62 NSCLC; 31.3 µM in the test with MDA-MB-435; 19.5 µM in the test with NCI-H226 lung. The TGI is 19.3 µM in the test with NCI-H23 lung, 9.46 µM in the test on OVCAR-3 ovarian, 29.8 µM in the test on OVCAR-4 ovarian and 21 µM in the test with TK-10 renal.

In the case of `CCOC(=O)NC(Nc1cccc(F)c1)(C(F)(F)F)C(F)(F)F`, the TGI in the test on DU-145 prostate, in the test on HCT-116 colon, in the test on HL-60(TB) leukemia, in the test with HOP-62 NSCLC, in the test with IGROV1 ovarian and with MDA-MB-435 was more than 100 µM throughout. Further, the TGI in the test on NCI-H226 lung, in the test on NCI-H23 lung, in the test on OVCAR-3 ovarian, in the test with SK-OV-3 ovarian, in the test on TK-10 renal and in the test with UACC-62 melanoma was more than 100 µM throughout.

For the compound `O=c1ccc(-c2ccc(-n3ccnc3)cc2)nn1CCO`, the TGI in the test with DU-145 prostate, in the test on HCT-116 colon, with HL-60(TB) leukemia, in the test on HOP-62 NSCLC, with IGROV1 ovarian and in the test on MDA-MB-435 was more than 100 µM throughout. Further, the TGI with NCI-H23 lung, in the test on OVCAR-3 ovarian, with OVCAR-4 ovarian, in the test with SK-OV-3 ovarian, in the test with TK-10 renal and in the test with UACC-62 melanoma was more than 100 µM throughout.

In the case of `O=c1oc2ccccc2cc1-c1nc2ccccc2c(=O)[nH]1`, the TGI with DU-145 prostate, in the test on HCT-116 colon, with HL-60(TB) leukemia, with HOP-62 NSCLC, with IGROV1 ovarian and in the test with MDA-MB-435 was more than 100 µM each time. Also, the TGI in the test with NCI-H226 lung, in the test on OVCAR-4 ovarian, in the test with SK-OV-3 ovarian, with TK-10 renal and in the test with UACC-62 melanoma was more than 100 µM in each case.
